The assay deals with L1210 leukemia ip in BDF1 mice, survival T/C. In words: NCI In Vivo Anticancer Drug Screen. Data for tumor model L1210 Leukemia (intraperitoneal) in B6D2F1 (BDF1) mice. Conditions: endpoint: mean survival time, higher = longer survival. The gist of the method: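 Mice bearing the transplanted tumor received compound or vehicle. Survival of the treated group was divided by that of the vehicle-treated control group to give the ratio.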

Where [1] appears, read: dose: 50.0 mg/kg/injection, schedule: Q04DX003 (ip), vehicle: saline.
Setting [2] is: dose: 100.0 mg/kg/injection, schedule: Q01DX009 (ip), vehicle: Klucel (hydroxypropylcellulose) (HPC).
The mark [3] stands for this setting: dose: 100.0 mg/kg/injection, schedule: Q04DX003 (ip), vehicle: Klucel (hydroxypropylcellulose) (HPC).
The mark [4] stands for this setting: dose: 200.0 mg/kg/injection, schedule: Q01DX009 (ip), vehicle: Klucel (hydroxypropylcellulose) (HPC).
[5] abbreviates: dose: 200.0 mg/kg/injection, schedule: Q04DX003 (ip), vehicle: Klucel (hydroxypropylcellulose) (HPC).
Setting [6] is: dose: 400.0 mg/kg/injection, schedule: Q01DX009 (ip), vehicle: Klucel (hydroxypropylcellulose) (HPC).
Where [7] appears, read: dose: 400.0 mg/kg/injection, schedule: Q04DX003 (ip), vehicle: Klucel (hydroxypropylcellulose) (HPC).
The mark [8] stands for this setting: dose: 100.0 mg/kg/injection, schedule: Q04DX003 (ip), vehicle: saline.
[9] abbreviates: dose: 200.0 mg/kg/injection, schedule: Q04DX003 (ip), vehicle: saline.
Where [10] appears, read: dose: 400.0 mg/kg/injection, schedule: Q04DX003 (ip), vehicle: saline.

Each structure is given as a SMILES string. “And” between values parts separate entries of the source, which are not always exact repeats. Equal entries are not always repeated. Inconclusive results and toxic doses are left out.

For `Nc1ncnc2c1ncn2CCCCCCl`, the T/C is 90 % of control (dose: 12.5 mg/kg/injection, schedule: Q04DX003 (ip), vehicle: saline); 88 % of control (dose: 25.0 mg/kg/injection, schedule: Q04DX003 (ip), vehicle: saline); 100 % of control under setting [1].

As for `Oc1ccccc1C=Nc1ccccc1S.[Co]`, the T/C is, setting by setting: (dose: 100.0 mg/kg/injection, schedule: Q01DX001 (ip), vehicle: other) 105 % of control; (dose: 200.0 mg/kg/injection, schedule: Q01DX001 (ip), vehicle: other) 100 % of control; (dose: 400.0 mg/kg/injection, schedule: Q01DX001 (ip), vehicle: other) 105 % of control.

For `Cc1nc2c(O)cccn2c(=O)c1Cl`, the T/C reads like this: (dose: 25.0 mg/kg/injection, schedule: Q01DX009 (ip), vehicle: saline with Tween-80) 92 % of control; (dose: 50.0 mg/kg/injection, schedule: Q01DX009 (ip), vehicle: saline with Tween-80) 94 % of control; (dose: 100.0 mg/kg/injection, schedule: Q01DX009 (ip), vehicle: saline with Tween-80) 97 % of control.

For `CC(C(=O)NN)C(C)(C)O` (stereo unspecified), the T/C (dose: 100.0 mg/kg/injection, schedule: Q04DX002 (ip), vehicle: Klucel (hydroxypropylcellulose) (HPC)) is 97 % of control; the T/C (dose: 200.0 mg/kg/injection, schedule: Q04DX002 (ip), vehicle: Klucel (hydroxypropylcellulose) (HPC)) was 94 % of control; the T/C (dose: 400.0 mg/kg/injection, schedule: Q04DX002 (ip), vehicle: Klucel (hydroxypropylcellulose) (HPC)) is 101 % of control.

Turning to `CCCCN1C(=O)CC(C23C(=O)N(CCCC)C(=O)C2CCc2ncccc23)C1=O` (stereo unspecified), the T/C under setting [2] is 87 % of control; the T/C under setting [3] is 94 % of control; the T/C under setting [4] is 89 % of control; the T/C under setting [5] was 99 % of control; the T/C under setting [6] was 87 % of control; the T/C under setting [7] was 90 % of control.

With `O=C1COc2ccc(Cl)cc2N1`, the T/C under setting [2] was 100 % of control, the T/C under setting [4] is 97 % of control and the T/C under setting [6] is 119 % of control.

On to `Cc1c(NC(=O)Nc2ccc(F)c([N+](=O)[O-])c2)c(=O)n(-c2ccccc2)n1C`, for which the T/C is 102 % of control under setting [2], 96 % of control under setting [4] and 103 % of control under setting [6].

As for `[Co].[NH-]CC[N-]CCO.[NH-]CC[N-]CCO`, the T/C runs as follows: (dose: 25.0 mg/kg/injection, schedule: Q01DX009 (ip), vehicle: saline) 100 % of control; (dose: 50.0 mg/kg/injection, schedule: Q01DX009 (ip), vehicle: saline) 102 % of control; under setting [1], 108 % of control; under setting [8], 105 % of control.

For `CN1CCN(C(=O)c2ccccc2C(=O)O)CC1`, the T/C by setting is: (dose: 100.0 mg/kg/injection, schedule: Q01DX001 (ip), vehicle: saline) 101 % of control; (dose: 200.0 mg/kg/injection, schedule: Q01DX001 (ip), vehicle: saline) 96 % of control.

Regarding `O=C(CCN1CC1)OCCOC(=O)CCN1CC1`, the T/C (dose: 7.1 mg/kg/injection, schedule: Q01DX Z (ip), vehicle: methylcellulose (MC)) is 97 % of control; the T/C (dose: 7.2 mg/kg/injection, schedule: Q01DX005 (ip), vehicle: saline) is 121 % of control; the T/C (dose: 10.6 mg/kg/injection, schedule: Q01DX Z (ip), vehicle: methylcellulose (MC)) was 113 % of control; the T/C (dose: 12.5 mg/kg/injection, schedule: Q04DX003 (ip), vehicle: acetone) was 109 % of control; the T/C (dose: 16.0 mg/kg/injection, schedule: Q01DX Z (ip), vehicle: methylcellulose (MC)) was 113 % of control and 120 % of control; the T/C (dose: 16.5 mg/kg/injection, schedule: Q04DX003 (ip), vehicle: acetone) is 101 % of control. Besides, the T/C (dose: 16.5 mg/kg/injection, schedule: Q04DX003 (ip), vehicle: saline) is 110 % of control; the T/C (dose: 22.0 mg/kg/injection, schedule: Q01DX001 (ip), vehicle: saline) is 122 % of control; the T/C (dose: 24.0 mg/kg/injection, schedule: Q01DX Z (ip), vehicle: methylcellulose (MC)) was 98 % of control and 103 % of control; the T/C (dose: 25.0 mg/kg/injection, schedule: Q01DX009 (ip), vehicle: acetone) is 150 % of control; the T/C (dose: 25.0 mg/kg/injection, schedule: Q04DX003 (ip), vehicle: acetone) is 103 % of control; the T/C (dose: 37.5 mg/kg/injection, schedule: Q01DX009 (ip), vehicle: acetone) was 160 % of control. Also, the T/C is 106 % of control (dose: 37.5 mg/kg/injection, schedule: Q04DX003 (ip), vehicle: acetone); 105 % of control (dose: 37.5 mg/kg/injection, schedule: Q04DX003 (ip), vehicle: saline); 124 % of control (dose: 50.0 mg/kg/injection, schedule: Q04DX003 (ip), vehicle: acetone); 155 % of control (dose: 55.0 mg/kg/injection, schedule: Q01DX005 (ip), vehicle: saline).

`COc1ccc(C(=S)N(CC(C)C)c2ccccc2)cc1`: the T/C by setting is: under setting [3], 94 % of control; under setting [5], 95 % of control; under setting [7], 94 % of control.

Regarding `CCN(CC)C(=O)CN`, the T/C was 103 % of control under setting [8], 100 % of control under setting [9] and 103 % of control under setting [10].

With `O=C(/C=C/c1ccncc1)c1cccc2ccccc12`, the T/C by setting is: (dose: 100.0 mg/kg/injection, schedule: Q04DX003 (ip), vehicle: saline with Tween-80) 89 % of control; (dose: 200.0 mg/kg/injection, schedule: Q04DX003 (ip), vehicle: saline with Tween-80) 97 % of control.

Consider `OC1OC(CF)C(O)C(O)C1O` (stereo unspecified), for which the T/C is, setting by setting: under setting [8], 104 % of control; under setting [9], 115 % of control; under setting [10], 118 % of control.

As for `O=c1[nH]c(=O)n(CCCOc2ccccc2)cc1CCc1ccccc1`, the T/C runs as follows: (dose: 100.0 mg/kg/injection, schedule: Q01DX001 (ip), vehicle: Klucel (hydroxypropylcellulose) (HPC)) 91 % of control; (dose: 200.0 mg/kg/injection, schedule: Q01DX001 (ip), vehicle: Klucel (hydroxypropylcellulose) (HPC)) 94 % of control; (dose: 400.0 mg/kg/injection, schedule: Q01DX001 (ip), vehicle: Klucel (hydroxypropylcellulose) (HPC)) 87 % of control.

Consider `COc1cc(NS(C)(=O)=O)ccc1N`, for which the T/C is 103 % of control (dose: 100.0 mg/kg/injection, schedule: Q01DX009 (ip), vehicle: saline); 107 % of control under setting [8]; 98 % of control (dose: 200.0 mg/kg/injection, schedule: Q01DX009 (ip), vehicle: saline); 103 % of control under setting [9]; 102 % of control under setting [10].

Take `O=[N+]([O-])c1cccc(N(c2ccccc2)c2ccccc2)c1`: the T/C reads like this: (dose: 100.0 mg/kg/injection, schedule: Q01DX001 (ip), vehicle: carboxymethylcellulose (CMC)) 108 % of control; (dose: 200.0 mg/kg/injection, schedule: Q01DX001 (ip), vehicle: carboxymethylcellulose (CMC)) 108 % of control; (dose: 400.0 mg/kg/injection, schedule: Q01DX001 (ip), vehicle: carboxymethylcellulose (CMC)) 100 % of control.

For `CC(C#N)Oc1cccc2ccccc12` (stereo unspecified), the T/C (dose: 100.0 mg/kg/injection, schedule: Q01DX009 (ip), vehicle: DMSO) was 87 % of control; the T/C (dose: 100.0 mg/kg/injection, schedule: Q04DX003 (ip), vehicle: DMSO) was 92 % of control; the T/C (dose: 200.0 mg/kg/injection, schedule: Q01DX009 (ip), vehicle: DMSO) is 87 % of control; the T/C (dose: 200.0 mg/kg/injection, schedule: Q04DX003 (ip), vehicle: DMSO) is 87 % of control; the T/C (dose: 400.0 mg/kg/injection, schedule: Q04DX003 (ip), vehicle: DMSO) is 103 % of control.

As for `CC1(C)C2CCC1C(O)C2` (stereo unspecified), the T/C is 104 % of control (dose: 75.0 mg/kg/injection, schedule: Q01DX009 (ip), vehicle: saline); 103 % of control (dose: 150.0 mg/kg/injection, schedule: Q01DX009 (ip), vehicle: saline); 94 % of control (dose: 300.0 mg/kg/injection, schedule: Q01DX009 (ip), vehicle: saline).

These data come from PubChem BioAssay AID248 (DTP/NCI, 2004).
